From PubChem BioAssay AID1963853 (Molecular Pharmacology Branch, DTP, NCI, 2024)

Tested on: 266295-075-R-J1-PDC spheroid viability
Assay: Anticancer human tumor 266295-075-R-J1-PDC patient-derived head and neck squamous carcinoma cell line growth inhibition [POLQ]
Details: spheroids with HUVEC and MSC; for IC50: curve of first compound; for viability, T/C: stronger effect = lower value; active means viability on the fitted dose curve at most 10% of control; inactive means the rest
Method in brief: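 Three-cell-type spheroids modelling solid tumor plus stroma served as the readout system; POL inhibitors were tested individually and in combination, concentration ranges set by clinical Cmax where known.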

[1] = second compound 0.0316 µM, first compound 0.0316 µM
[2] = second compound 0.0316 µM, first compound 0.1 µM
[3] = second compound 0.0316 µM, first compound 0.316 µM
[4] = second compound 0.0316 µM, first compound 1 µM
[5] = second compound 0.0316 µM, first compound 3.16 µM
[6] = second compound 0.0316 µM, first compound 10 µM
[7] = second compound 0.1 µM, first compound 0.0316 µM
[8] = second compound 0.1 µM, first compound 0.1 µM
[9] = second compound 0.1 µM, first compound 0.316 µM
[10] = second compound 0.1 µM, first compound 1 µM
[11] = second compound 0.1 µM, first compound 3.16 µM
[12] = second compound 0.1 µM, first compound 10 µM
[13] = second compound 0.316 µM, first compound 0.0316 µM
[14] = second compound 0.316 µM, first compound 0.1 µM
[15] = second compound 0.316 µM, first compound 0.316 µM
[16] = second compound 0.316 µM, first compound 1 µM
[17] = second compound 0.316 µM, first compound 3.16 µM
[18] = second compound 0.316 µM, first compound 10 µM
[19] = second compound 1 µM, first compound 0.0316 µM
[20] = second compound 1 µM, first compound 0.1 µM
[21] = second compound 1 µM, first compound 0.316 µM
[22] = second compound 1 µM, first compound 1 µM
[23] = second compound 1 µM, first compound 3.16 µM
[24] = second compound 1 µM, first compound 10 µM
[25] = second compound 3.16 µM, first compound 0.0316 µM
[26] = second compound 3.16 µM, first compound 0.1 µM
[27] = second compound 3.16 µM, first compound 0.316 µM
[28] = second compound 3.16 µM, first compound 1 µM
[29] = second compound 3.16 µM, first compound 3.16 µM
[30] = second compound 3.16 µM, first compound 10 µM
[31] = second compound 10 µM, first compound 0.0316 µM
[32] = second compound 10 µM, first compound 0.1 µM
[33] = second compound 10 µM, first compound 0.316 µM
[34] = second compound 10 µM, first compound 1 µM
[35] = second compound 10 µM, first compound 3.16 µM
[36] = second compound 10 µM, first compound 10 µM
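Further: spheroids exposed to compounds for seven days before readout.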

CCc1cc2c(N3CCc4c(cc(Cn5ccnc5)cc4-c4cn(C)nc4C(F)(F)F)C3=O)cc(C)nc2c(OC)n1 + Cc1cccc(N(C)C(=O)C2C(O)CCN2c2nc(C)cc(C(F)(F)F)c2C#N)c1
> 10 µM: IC50 (second compound 0.0316 µM) | IC50 (second compound 0.1 µM) | IC50 (second compound 0.316 µM) | IC50 (second compound 1 µM) | IC50 (second compound 3.16 µM) | IC50 (second compound 10 µM)
inactive: viability, T/C [1] 72.8% | viability, T/C [2] 89% | viability, T/C [3] 81.6% | viability, T/C [4] 111% | viability, T/C [5] 130% | viability, T/C [6] 120% | viability, T/C [7] 102% | viability, T/C [8] 90.4% | viability, T/C [9] 101% | viability, T/C [10] 110% | viability, T/C [11] 89.3% | viability, T/C [12] 114% | viability, T/C [13] 97.7% | viability, T/C [14] 105% | viability, T/C [15] 102% | viability, T/C [16] 122% | viability, T/C [17] 131% | viability, T/C [18] 123% | viability, T/C [19] 87.1% | viability, T/C [20] 88.4% | viability, T/C [21] 102% | viability, T/C [22] 98.5% | viability, T/C [23] 135% | viability, T/C [24] 121% | viability, T/C [25] 83.7% | viability, T/C [26] 102% | viability, T/C [27] 117% | viability, T/C [28] 109% | viability, T/C [29] 138% | viability, T/C [30] 137% | viability, T/C [31] 101% | viability, T/C [32] 93.2% | viability, T/C [33] 111% | viability, T/C [34] 127% | viability, T/C [35] 122% | viability, T/C [36] 145%

COc1cc2cc(C(=O)CCC(=O)O)sc2cc1OC + COC1C(OC(N)=O)C(O)C(Oc2ccc3c(O)c(NC(=O)c4ccc(O)c(CC=C(C)C)c4)c(=O)oc3c2C)OC1(C)C
> 10 µM: IC50 (second compound 0.0316 µM) | IC50 (second compound 0.1 µM) | IC50 (second compound 0.316 µM) | IC50 (second compound 1 µM) | IC50 (second compound 3.16 µM) | IC50 (second compound 10 µM)
inactive: viability, T/C [1] 99.4% | viability, T/C [2] 95.9% | viability, T/C [3] 114% | viability, T/C [4] 101% | viability, T/C [5] 95.4% | viability, T/C [6] 82.4% | viability, T/C [7] 69.1% | viability, T/C [8] 90.1% | viability, T/C [9] 96.8% | viability, T/C [10] 120% | viability, T/C [11] 93.8% | viability, T/C [12] 93.3% | viability, T/C [13] 97.7% | viability, T/C [14] 91.6% | viability, T/C [15] 92.4% | viability, T/C [16] 99.2% | viability, T/C [17] 91.5% | viability, T/C [18] 87.6% | viability, T/C [19] 100% | viability, T/C [20] 96.4% | viability, T/C [21] 97.8% | viability, T/C [22] 111% | viability, T/C [23] 93.2% | viability, T/C [24] 93.4% | viability, T/C [25] 99.5% | viability, T/C [26] 90.2% | viability, T/C [27] 95.6% | viability, T/C [28] 112% | viability, T/C [29] 90.7% | viability, T/C [30] 90.1% | viability, T/C [31] 114% | viability, T/C [32] 90.6% | viability, T/C [33] 96.5% | viability, T/C [34] 98.5% | viability, T/C [35] 120% | viability, T/C [36] 90.2%

COc1cccc2c1C(=O)c1c(O)c3c(c(O)c1C2=O)CC(O)(C(=O)CO)CC3OC1CC(N)C(O)C(C)O1 (stereo unspecified) + Nc1ccc(C#CCN(C(=O)Cc2ncc(C(F)(F)F)cc2C(F)(F)F)c2ccc(F)cc2)nn1
3.47 µM: IC50 (second compound 3.16 µM)
4.42 µM: IC50 (second compound 0.0316 µM)
2.44 µM: IC50 (second compound 10 µM)
4.41 µM: IC50 (second compound 1 µM)
4.37 µM: IC50 (second compound 0.316 µM)
3.75 µM: IC50 (second compound 0.1 µM)
inactive: viability, T/C [1] 93% | viability, T/C [2] 106% | viability, T/C [3] 74.4% | viability, T/C [4] 83.8% | viability, T/C [5] 72.4% | viability, T/C [7] 126% | viability, T/C [8] 103% | viability, T/C [9] 89.2% | viability, T/C [10] 80.5% | viability, T/C [11] 71.8% | viability, T/C [13] 119% | viability, T/C [14] 106% | viability, T/C [15] 74.2% | viability, T/C [16] 96.6% | viability, T/C [17] 72.9% | viability, T/C [19] 92.7% | viability, T/C [20] 84.3% | viability, T/C [21] 89.3% | viability, T/C [22] 77.9% | viability, T/C [23] 71.8% | viability, T/C [25] 103% | viability, T/C [26] 102% | viability, T/C [27] 73.9% | viability, T/C [28] 74.2% | viability, T/C [29] 64% | viability, T/C [31] 134% | viability, T/C [32] 99.5% | viability, T/C [33] 90.1% | viability, T/C [34] 73.8% | viability, T/C [35] 53.3%
active: viability, T/C [6] 2.33% | viability, T/C [12] 2.03% | viability, T/C [18] 1.67% | viability, T/C [24] 2.11% | viability, T/C [30] 1.77% | viability, T/C [36] 2.11%
